The target of assay [1] is T1, S. aureus DnaE (DNA polymerase III α-subunit homolog from Staphylococcus aureus) (Staphylococcus aureus, UniProt Q5HF71).
T1 construct: SaDnaE (S. aureus DnaE residues 1-1065); 6xHis (N); made in house; host or cells: E. coli BL21-AI
T1 sequence (Q5HF71 1-1065): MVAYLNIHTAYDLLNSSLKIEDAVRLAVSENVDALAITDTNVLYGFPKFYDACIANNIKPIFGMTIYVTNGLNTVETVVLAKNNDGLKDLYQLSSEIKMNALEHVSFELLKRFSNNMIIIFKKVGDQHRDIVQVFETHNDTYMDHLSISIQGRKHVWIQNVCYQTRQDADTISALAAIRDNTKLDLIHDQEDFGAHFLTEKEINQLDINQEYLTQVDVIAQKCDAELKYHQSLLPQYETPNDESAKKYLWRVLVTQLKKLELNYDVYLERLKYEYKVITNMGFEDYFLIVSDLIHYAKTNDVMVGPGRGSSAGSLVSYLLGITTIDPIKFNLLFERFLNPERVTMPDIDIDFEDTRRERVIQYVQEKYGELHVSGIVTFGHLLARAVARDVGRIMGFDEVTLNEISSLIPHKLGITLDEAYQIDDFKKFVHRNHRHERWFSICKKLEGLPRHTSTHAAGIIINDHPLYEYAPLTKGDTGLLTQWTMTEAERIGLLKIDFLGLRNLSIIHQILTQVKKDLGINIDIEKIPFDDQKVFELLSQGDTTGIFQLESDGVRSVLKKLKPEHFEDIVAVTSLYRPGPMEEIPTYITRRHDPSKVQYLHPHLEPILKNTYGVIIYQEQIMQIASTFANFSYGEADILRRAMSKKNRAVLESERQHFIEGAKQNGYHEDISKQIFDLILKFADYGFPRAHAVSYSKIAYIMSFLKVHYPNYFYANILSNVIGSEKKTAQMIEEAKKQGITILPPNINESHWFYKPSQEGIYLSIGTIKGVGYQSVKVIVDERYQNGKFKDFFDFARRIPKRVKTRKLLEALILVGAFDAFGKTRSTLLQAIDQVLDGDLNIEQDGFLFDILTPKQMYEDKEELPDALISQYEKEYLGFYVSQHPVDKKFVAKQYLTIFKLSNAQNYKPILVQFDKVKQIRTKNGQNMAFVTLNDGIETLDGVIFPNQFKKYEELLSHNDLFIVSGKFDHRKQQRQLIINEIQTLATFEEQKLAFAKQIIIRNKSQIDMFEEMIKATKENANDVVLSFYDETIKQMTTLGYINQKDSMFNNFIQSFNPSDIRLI
Nature of the assay: biochemical. Type of assay: biochemical. A digest of the protocol:
(§1)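 3H-dTTP (0.011 mM) incorporation into DNase I-activated calf thymus DNA, alongside the other three dNTPs at 0.025 mM, measured by filter counting after TCA precipitation. Reactions ran 30 min at 30° C., started with purified N-His DnaE: 0.8 μg/ml for E. coli, 0.05 μg/ml for S. aureus.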

The test system of assay [2] is Pseudomonas aeruginosa MB5890 (CB1101, efflux-deleted). Nature of the assay: microbe, parasite or virus in culture. Type of assay: cell-based. The settings on record: * = some reduction of growth versus control at […]; for MIC: Pseudomonas aeruginosa, read-out: P. aeruginosa MB5890 efflux-del (MIC), MHII broth.
In assay [3] the test system is Escherichia coli MB5747 (LS 883, tolC). Nature of the assay: microbe, parasite or virus in culture. Type of assay: cell-based. The note with it: * = some reduction of growth versus control at […]; for MIC: Escherichia coli, read-out: E. coli LS883 tolC (MIC), MHII broth.
The test system of assay [4] is Staphylococcus aureus MB6266 (MRSA COL). Nature of the assay: Nargenicin antibacterial assay (MIC), S. aureus. It counts as cell-based. The settings on record: * = some reduction of growth versus control at […]; for MIC: Staphylococcus aureus, MRSA, read-out: S. aureus COL (MIC), MHII broth + 50% human serum.
The subject of assay [5] is Streptococcus pneumoniae MB6357 (CL 2883). Nature of the assay: Nargenicin antibacterial assay (MIC), S. pneumoniae. Type of assay: cell-based. The settings on record: * = some reduction of growth versus control at […]; for MIC: Streptococcus pneumoniae, read-out: S. pneumoniae MB2883 (MIC), Isosensitest broth.
Assay [6] deals with T2, E. coli DnaE (DNA polymerase III α-subunit from Escherichia coli) (Escherichia coli, UniProt P10443).
T2 construct: EcDnaE (E. coli DnaE residues 1-1160); 6xHis (N); made in house; host or cells: E. coli BL21(DE3)
Nature of the assay: In vitro DnaE single enzyme assay (E. coli). Type of assay: biochemical. A digest of the protocol:
as §1

Where [7] appears, read: read-out: E. coli DnaE IC50 (converted).

Here are results for eleven compounds from patent US9944654B2, “Nargenicin compounds and uses thereof as antibacterial agents” (priority 2014, dated 2018).

≈ marks a conversion by molar mass, not a printed value. Read-outs that look alike come from different tables or passages of the source.

T2 sequence (P10443 whole entry, the tested form may be a part): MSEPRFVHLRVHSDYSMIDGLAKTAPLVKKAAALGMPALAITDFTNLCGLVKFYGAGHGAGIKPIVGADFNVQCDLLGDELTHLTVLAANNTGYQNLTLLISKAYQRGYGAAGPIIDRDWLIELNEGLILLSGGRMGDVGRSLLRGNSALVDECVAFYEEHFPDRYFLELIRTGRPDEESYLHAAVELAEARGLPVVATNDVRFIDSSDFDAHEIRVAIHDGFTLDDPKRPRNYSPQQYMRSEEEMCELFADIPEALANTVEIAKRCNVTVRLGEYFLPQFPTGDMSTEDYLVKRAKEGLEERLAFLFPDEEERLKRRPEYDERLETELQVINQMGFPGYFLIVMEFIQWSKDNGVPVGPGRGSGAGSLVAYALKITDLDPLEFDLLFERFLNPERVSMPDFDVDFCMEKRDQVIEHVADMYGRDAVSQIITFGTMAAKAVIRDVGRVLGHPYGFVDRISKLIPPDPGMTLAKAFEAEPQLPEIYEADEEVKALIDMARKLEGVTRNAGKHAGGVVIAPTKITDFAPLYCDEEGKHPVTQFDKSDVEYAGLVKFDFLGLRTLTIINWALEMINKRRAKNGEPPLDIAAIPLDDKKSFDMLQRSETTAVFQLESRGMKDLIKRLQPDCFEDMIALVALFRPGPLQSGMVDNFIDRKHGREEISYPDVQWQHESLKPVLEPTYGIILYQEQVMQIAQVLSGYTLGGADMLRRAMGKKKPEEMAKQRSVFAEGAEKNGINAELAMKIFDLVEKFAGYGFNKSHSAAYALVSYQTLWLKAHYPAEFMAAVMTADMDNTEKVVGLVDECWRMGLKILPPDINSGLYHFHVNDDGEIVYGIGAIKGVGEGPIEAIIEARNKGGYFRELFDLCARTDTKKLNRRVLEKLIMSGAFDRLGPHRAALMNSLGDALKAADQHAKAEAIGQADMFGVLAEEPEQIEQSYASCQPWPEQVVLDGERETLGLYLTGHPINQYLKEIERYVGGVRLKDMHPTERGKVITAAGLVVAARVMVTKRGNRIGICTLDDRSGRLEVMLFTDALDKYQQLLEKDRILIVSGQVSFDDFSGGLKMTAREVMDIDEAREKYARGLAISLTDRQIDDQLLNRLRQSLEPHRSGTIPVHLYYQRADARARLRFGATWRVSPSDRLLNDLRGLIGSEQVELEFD

For the compound `CO[C@H]1C[C@H]2C=CC3C4[C@H](O)[C@@H](C)[C@@H](OC(=O)c5ccc[nH]5)[C@@H]3O[C@]42/C(C)=C/[C@@H](C)[C@@H]([C@@H](C)OC(=O)C(=O)NC(C)(C)C)OC1=O` [Example 116], the “S. aureus DnaE IC50” value in assay [1] was 0.006 µg/mL. For the same compound, in assay [2] (MHII broth), the “P. aeruginosa MB5890 efflux-del (MIC)” value was 8 µg/mL. The “E. coli LS883 tolC (MIC)” value in assay [3] (MHII broth) came to 0.25 µg/mL. The “S. aureus COL (MIC)” value in assay [4] (MHII broth + 50% human serum) is at most 0.125 µg/mL. Also, the “S. pneumoniae MB2883 (MIC)” value in assay [5] (Isosensitest broth) is reported as >128* μg/mL. The “E. coli DnaE IC50” value in assay [6] came to 15 µg/mL.
With `CO[C@H]1C[C@H]2C=C[C@H]3[C@H]4O[C@]2(/C(C)=C/[C@@H](C)[C@@H]([C@@H](C)O)OC1=O)[C@@H]3[C@H](O)[C@@H](C)[C@H]4OC(=O)c1ccc(Cl)[nH]1` [Example 44], the values for the IC50 in assay [1] (S. aureus DnaE IC50) and in assay [6] (setting [7]) were below 0.0109 µM and 49.1 µM, respectively. For the same compound, the MIC came out at 128 µg/mL (≈ 233 µM) in assay [2], 8 µg/mL (≈ 14.5 µM) in assay [3], 16 µg/mL in assay [4] and 64 µg/mL (≈ 116 µM) in assay [5].
Regarding `CO[C@H]1C[C@H]2C=C[C@H]3[C@H]4O[C@]2(/C(C)=C/[C@@H](C)[C@@H]([C@@H](C)O)OC1=O)[C@@H]3[C@H](O)[C@@H](C)[C@@H]4N` [Example 151, (3R,4S,7S,8aS,10aR,11R,12S,13S,14R,14aS,14bS,E)-12-amino-14-hydroxy-4-((R)-1-hydroxyethyl)-7-methoxy-1,3,13-trimethyl-3,4,8,8a,10a,11,12,13,14,14 a-decahydro-11,14b-epoxynaphtho [2,1-e]oxecin-6(7H)-one], the IC50 in assay [1] (S. aureus DnaE IC50) is 4.98 µM; in assay [6] (E. coli DnaE IC50), above 237 µM. Besides, the MIC in assay [2], in assay [3], in assay [4] and in assay [5] was above 128 µg/mL throughout.
As to `CO[C@H]1C[C@H]2C=CC3C4[C@H](O)[C@@H](C)[C@@H](OC(=O)c5cc(NC(C)=O)c[nH]5)[C@@H]3O[C@]42/C(C)=C/[C@@H](C)[C@@H]([C@@H](C)O)OC1=O` [Example 168, (3R,4S,7S,8aS,11R,12R,13R,14R,14bS,E)-14-hydroxy-4-((R)-1-hydroxyethyl)-7-methoxy-1,3,13-trimethyl-6-oxo-3,4,6,7,8,8a,10a,11,12,13,14,14a-dodecahydro-11,14b-epoxynaphtho[2,1-e]oxecin-12-yl 4-acetamido-1H-pyrrole-2-carboxylate], the IC50 was 31.4 µM in assay [1] (S. aureus DnaE IC50) and above 87.3 µM in assay [6] (setting [7]). Besides, the MIC in assay [2] was above 64 µg/mL; in assay [3], above 128 µg/mL; in assay [4] it was above 128 µg/mL; in assay [5] it was above 64 µg/mL.
On to `C=CC[C@@H]1OC(=O)[C@@H](OC)C[C@H]2C=C[C@H]3[C@H]4O[C@]2(/C(C)=C/[C@H]1C)[C@@H]3[C@H](O)[C@@H](C)[C@H]4OC(=O)c1ccc[nH]1` [Example 54], for which the IC50 in assay [1] (S. aureus DnaE IC50) was 0.088 µM; in assay [6] (setting [7]), 60.6 µM. Also, the MIC in assay [2] is above 128 µg/mL; in assay [3] it was 64 µg/mL (≈ 125 µM); in assay [4] it was 64 µg/mL; in assay [5], above 128 µg/mL.
On to `CO[C@H]1C[C@H]2C(=O)C[C@H]3[C@H]4O[C@]2(/C(C)=C/[C@@H](C)[C@@H]([C@@H](C)O)OC1=O)[C@@H]3[C@H](O)[C@@H](C)[C@H]4OC(=O)c1ccc[nH]1` [Example 182], for which the results for the IC50 in assay [1] (S. aureus DnaE IC50) and in assay [6] (setting [7]) were 0.0376 µM and above 188 µM, respectively. Further, the MIC in assay [2] is 32 µg/mL (≈ 60.2 µM); in assay [3], 8 µg/mL (≈ 15 µM); in assay [4] it was 32 µg/mL; in assay [5], above 128 µg/mL.
`CO[C@H]1C[C@H]2C=C[C@H]3[C@H]4O[C@]2(/C(C)=C/[C@@H](C)[C@@H]([C@@H](C)O)OC1=O)[C@@H]3[C@H](O)[C@@H](C)[C@H]4OC(=O)c1[nH]c(Br)c(Br)c1Br` [Example 41, (3R,4S,7S,8aS,10aR,11R,12R,13R,14R,14aS,14bS,E)-14-hydroxy-4-((R)-1-hydroxyethyl)-7-methoxy-1,3,13-trimethyl-6-oxo-3,4,6,7,8,8a,10a,11,12,13,14,14a-dodecahydro-11,14b-epoxynaphtho[2,1-e]oxecin-12-yl3,4,5-tribromo-1H-pyrrole-2-carboxylate]: the IC50 in assay [1] (S. aureus DnaE IC50) is 4.12 µM; in assay [6] (E. coli DnaE IC50) it was 79.8 µM. Moreover, the MIC in assay [2] is above 128 µg/mL; in assay [3], above 128 µg/mL; in assay [4], above 128 µg/mL; in assay [5] it was 8 µg/mL (≈ 10.6 µM).
Regarding `C=CC[C@H]1[C@@H]2O[C@@]34/C(C)=C/[C@@H](C)[C@@H]([C@@H](C)O)OC(=O)[C@@H](OC)C[C@H]3C=C[C@@H]2[C@H]4C(=O)[C@@H]1C` [Example 150, (3R,4S,7S,8aS,10aR,11S,12R,13R,14aR,14bS,E)-12-allyl-4-((R)-1-hydroxyethyl)-7-methoxy-1,3,13-trimethyl-3,4,8,8a,10a,11,12,13-octahydro-11,14b-epoxynaphtho[2,1-e]oxecine-6,14(7H,14aH)-dion], the IC50 was 5.62 µM in assay [1] (read-out: S. aureus DnaE IC50 (converted)) and above 112 µM in assay [6] (E. coli DnaE IC50). In addition, the MIC in assay [2] is above 64 µg/mL; in assay [3], above 64 µg/mL; in assay [4], above 64 µg/mL; in assay [5] it was 64 µg/mL (≈ 144 µM).
Consider `CO[C@H]1C[C@H]2C=C[C@H]3[C@H]4O[C@]2(/C(C)=C/[C@@H](C)[C@@H]([C@@H](C)OC(=O)NC2CC2)OC1=O)[C@@H]3[C@H](O)[C@@H](C)[C@H]4OC(=O)c1ccc[nH]1` [Example 6], for which the figures for the IC50 in assay [1] (S. aureus DnaE IC50) and in assay [6] (setting [7]) were 0.0184 µM and 75.2 µM, respectively. Further, the MIC in assay [2] is above 128 µg/mL; in assay [3], 4 µg/mL (≈ 6.68 µM); in assay [4] it was 8 µg/mL; in assay [5], 128 µg/mL (≈ 214 µM).
In the case of `C/C1=C\[C@@H](C)[C@@H](C(C)O)OC(=O)C(O)CC2C=C[C@H]3[C@H]4O[C@@]12[C@@H]3[C@H](O)[C@@H](C)[C@H]4OC(=O)c1ccc[nH]1` (stereo partly drawn) [Example 174], the IC50 is 0.0199 µM in assay [1] (S. aureus DnaE IC50) and 21.9 µM in assay [6] (setting [7]). Further, the MIC in assay [2] was above 128 µg/mL; in assay [3], 8 µg/mL (≈ 15.9 µM); in assay [4], 8 µg/mL; in assay [5], above 128 µg/mL.
As to `CC[C@@H]1OC(=O)[C@@H](OC)C[C@H]2C=C[C@H]3[C@H]4O[C@]2(/C(C)=C/[C@H]1C)[C@@H]3[C@H](O)[C@@H](C)[C@H]4OC(=O)c1ccc[nH]1` [Example 49], the IC50 is 0.56 µM in assay [1] (S. aureus DnaE IC50) and above 200 µM in assay [6] (setting [7]). The MIC was above 128 µg/mL in assay [2], 64 µg/mL (≈ 128 µM) in assay [3], above 128 µg/mL in assay [4] and above 128 µg/mL in assay [5].

In general, IC50 refers to the concentration needed to halve the response being measured.
